Tests used:
synaptophysin = experiment: Synaptophysin expression in primary hippocampal neurons (immunofluorescence, Western Blot); assay type: cell-based, rat
Procedure: (§1) Cells were grown in two chambered slides (Nunc, USA) at low density. For immunofluorescence staining, the cells were washed with PBS (pH 7.4) and fixed with 4% paraformaldehyde for 4 min. Following fixation, the cells were blocked and permeabilized with 5% serum and 0.3% Triton X-100 in 1×PBS for 30 min. Cells were washed three times with 1×PBS and incubated with primary antibodies for 1 hr at 1:100 dilution. After the incubation, the slides were again washed three times in 1×PBS and were incubated with the FITC anti-mouse IgG and Rhodamine anti-rabbit IgG for 1 hr at 1:400 dilution. The cells were further washed and stained with DAPI (4′,6-diamidino-2′-phenylindole, dihydrochloride) (Thermo Scientific, USA) to stain the nucleus. Finally, the slides were washed and mounted in Pro Long Gold antifade mounting solution (Invitrogen, USA) and were viewed under a LSM 710 Meta confocal microscope (Zeiss) at 350 nm, 490 nm, and 540 nm excitation and 470 nm, 525 nm, and 625 nm emission for DAPI, FITC, and Rhodamine respectively. Six individual fields at 63× oil lens magnification were analyzed for the mean fluorescence intensity (MFI) in each channel.
(§2) Cells were harvested in homogenizing buffer containing 10 mM Tris-Cl (pH 7.4), 1 mM PMSF (phenylmethylsulfonyl fluoride), 1 mM EGTA, 1 mM EDTA, 50 mM NaF, and 20 μM leupeptin, and were lysed by sonication. The homogenate was centrifuged at 100,000×g for 15 min at 4° C. to obtain the cytosolic fraction (supernatant) and membrane (pellet). The pellet was resuspended in the homogenizing buffer by sonication. For whole cell protein isolation from primary neurons, the homogenizing buffer contained 1% Triton X-100. Protein concentration was measured using the Coomassie Plus (Bradford) Protein Assay kit (Pierce, USA). Following quantification, 20 μg of protein from each sample was subjected to SDS-PAGE analysis in a 4-20% gradient Tris-Glycine gel (Invitrogen, USA). The separated protein was then transferred to a nitrocellulose membrane. The membrane was blocked with 5% BSA at room temperature for 15 min and was incubated with primary antibody overnight at 4° C. After the incubation, it was washed three times with TBS-T (Tris Buffered Saline-Tween 20) and further incubated with alkaline phosphatase conjugated secondary antibody (Jackson Immunoresearch Laboratories, USA) at 1:10000 dilution for 45 min. The membrane was finally washed three times with TBS-T and developed using the 1-step NBT-BCIP substrate (Pierce, USA). The blot was imaged in an ImageQuant RT-ECL (GE Life Sciences, Piscataway, N.J.) and densitometric quantification was performed using IMAL software (Blanchette Rockefeller Neurosciences Institute, Morgantown, W. Va.). For translocation assays, PKC activation was represented as the percentage of total protein in the membrane (membrane/cytosol+membrane).
(§3) To estimate the synaptic damage caused by the ASPDs on primary hippocampal neurons, the expression of synaptophysin (a presynaptic marker) and PSD-95 (a postsynaptic marker) was measured by immunofluorescence staining. […] Following a 20 hr incubation period, the cells were stained for nucleus, PSD-95, and synaptophysin. Expression levels were calculated as the change of percentage in mean fluorescence intensity compared to untreated cells.
(§4) Primary neurons, treated and untreated, were immunostained for MAP-2, synaptophysin, and PSD-95 to determine the synaptic integrity. […] Following a 20 hr incubation period, the cells were stained for MAP-2, PSD-95, and synaptophysin as described above.

PSD-95 = PSD-95 expression in primary hippocampal neurons (immunofluorescence); assay type: cell-based, rat; conditions: 20 hr
Procedure: as §1, §3, §4

rat hippocampal neurons = experiment: Dendritic branching in seven day old rat hippocampal neurons (confocal microscopy); assay type: cell-based; conditions: 100 nM, 48 hr
Procedure: The effect of DCPLA-ME on development of primary neurons was investigated. Seven day old rat hippocampal neurons were treated with DCPLA-ME (100 nM) for 48 hr. Immunofluorescence and confocal microscopy-cells were grown in four chambered slides (Nunc, USA) at low density. For immunofluorescence staining the cells were washed with PBS (pH 7.4) and fixed with 4% paraformaldehyde for 4 min. Following fixation, cells were blocked and permeabilized with 5% serum and 0.3% Triton X-100 in 1×PBS for 30 min. Cells were washed 3× with 1×PBS and incubated with primary antibodies for 1 hr at 1:100 dilution. After the incubation slides were again washed 3× in 1×PBS and were incubated with the FITC anti-rabbit IgG and Rhodamine anti-mouse IgG for 1 hr at 1:400 dilution. Cells were further washed and mounted in Pro Long Gold antifade mounting solution (Invitrogen, USA). Stained cells were viewed under the LSM 710 Meta confocal microscope (Zeiss) at 350 nm, 490 nm and 540 nm excitation and 470 nm, 525 nm and 625 nm emission for DAPI, FITC and rhodamine respectively. Six individual fields at 20× or 63× oil lens magnification were analyzed for the mean fluorescence intensity (MFI) in each channel. The colocalization correlation was generated by the ZEN software (Zeiss).

PKC-ε = PKC-ε translocation to membrane in SH-SY5Y neuroblastoma cells (Western Blot); assay type: cell-based, human
Procedure: as §2

MAP-2 = MAP-2 expression in primary hippocampal neurons (immunofluorescence); assay type: cell-based, rat; conditions: 20 hr
Procedure: as §1
Primary neurons, treated and untreated, were immunostained for MAP-2, synaptophysin, and PSD-95 to determine the synaptic integrity. […]

[1] = system: primary human cortical neurons; experiment: 40 day culture of human primary cortical neurons: survival, synapses, branching; assay type: cell-based; conditions: 100 nM
Procedure: To examine the effects of PKC-ε activation, cultured human cortical neurons in serum-free artificial medium were exposed to 100 nM DCPLA-ME added every three days, along with 50% medium replacement, for 40 days. More specifically, human primary cortical neurons were grown in Neuronal Medium (ScienCell Cat No#1521) containing neuronal growth supplement (NGS) (Sciencell Cat No#1562).
Cells were plated on poly-l-lysine (0.001%) coated plates at a density of >10000 cells/cm2. Half of the media was replaced by new media every 3 days. DCPLA-ME was dissolved in 100% ethanol and added at 100 nM final concentration. Fresh DCPLA-ME (100 nM) was added every 3 days during media change. The experiments were continued for 40 days.
Human primary neurons (ScienCell Research Laboratories, USA) were thawed and plated on poly-L-lysine coated plates at a density of 10,000 cells per cm^2 and were maintained in neuronal medium (DMEM+high glucose+neuronal growth supplement, ScienCell Research Laboratories, USA) following the recommended method. Primary human neurons were then treated with either DCPLA-ME (100 nM) or bryostatin 1 (0.27 nM) for 40 days. Fresh drug was added every third day with 50% media change.

Compound: CCCCCC1CC1CC1CC1CCCCCCCC(=O)OC (centres unmarked) [DCPLA-ME, DCPLA methyl ester]
- synaptophysin mean fluorescence intensity (synaptophysin; 50 nM ASPD + 100 nM DCPLA-ME, 20 hr): 87.48±3.75 % of control
- PSD-95 mean fluorescence intensity (PSD-95; 50 nM ASPD + 100 nM DCPLA-ME): 99.2±11.3 % of control
- Synaptophysin staining (rat hippocampal neurons): increased
- PKC-ε translocation in ASPD-treated cells (PKC-ε; ASPD + DCPLA-ME, FIG. 8D): restored PKC-ε translocation to normal
- MAP-2 mean fluorescence intensity (MAP-2; 50 nM ASPD + 100 nM DCPLA-ME): 68.87±2.0 % of control
- number of synapses ([1]; 30 day old neurons): significantly increased
- Expression levels of PKCε, PSD-95 and synaptophysin ([1]; 40 days, compared to control or bryostatin 1-treated cells): significantly higher

Compound: ASPD: Amylospheroids from Aβ1-42, 100 kDa filter retentate, containing 39 monomers on average
- synaptophysin mean fluorescence intensity (synaptophysin; 50 nM ASPD, 20 hr): 63.3±3.8 % of control
- synaptophysin mean fluorescence intensity (synaptophysin; 50 nM ASPD, 20 hr, listed as ASPDs): 62.45±6.74 % of control
- decrease in synaptophysin intensity (synaptophysin; 50 nM, 20 hr): 40%
- decrease of synaptophysin expression (Western Blot) (synaptophysin; ASPD): 26%
- synaptophysin expression (Western Blot) (synaptophysin; ASPD, relative to control): 73.30%
- PSD-95 mean fluorescence intensity (PSD-95; 50 nM ASPD): 67.63±7.24 % of control
- decrease of PSD-95 expression (PSD-95; 50 nM ASPD): 42%
- reduction of PKC-ε membrane translocation (PKC-ε; ASPD 50 nM): 46%
- PKC-ε membrane translocation (PKC-ε; ASPD 50 nM, relative to control): 69.98±3.27%
- MAP-2 mean fluorescence intensity (MAP-2; 50 nM ASPD): 40.7±6.2 % of control

From US9163032B2, “Esters of DCPLA and methods of treatment using the same” (Blanchette Rockefeller Neurosciences Institute, priority 2011, dated 2015)
